Experimental data reported in patent US7858635B2 (priority 2005, dated 2010).
Where two headings read alike, the source gives them in different places.

Assays:
M1 muscarinic receptor = biological target: T1, M1 muscarinic receptor (Homo sapiens, UniProt P11229); test: Functional mobilization of intracellular calcium (FLIPR, Fluo-3), M1-CHO cells; assay type: cell-based; conditions: for Emax: 100% efficacy is the maximum response obtained with the Carbachol control, read-out: M1 Efficacy
T1 construct: expressed in transfected cells; host or cells: CHO cells (M1-CHO, under zeocin and G418 selection)
T1 sequence (P11229 1-460): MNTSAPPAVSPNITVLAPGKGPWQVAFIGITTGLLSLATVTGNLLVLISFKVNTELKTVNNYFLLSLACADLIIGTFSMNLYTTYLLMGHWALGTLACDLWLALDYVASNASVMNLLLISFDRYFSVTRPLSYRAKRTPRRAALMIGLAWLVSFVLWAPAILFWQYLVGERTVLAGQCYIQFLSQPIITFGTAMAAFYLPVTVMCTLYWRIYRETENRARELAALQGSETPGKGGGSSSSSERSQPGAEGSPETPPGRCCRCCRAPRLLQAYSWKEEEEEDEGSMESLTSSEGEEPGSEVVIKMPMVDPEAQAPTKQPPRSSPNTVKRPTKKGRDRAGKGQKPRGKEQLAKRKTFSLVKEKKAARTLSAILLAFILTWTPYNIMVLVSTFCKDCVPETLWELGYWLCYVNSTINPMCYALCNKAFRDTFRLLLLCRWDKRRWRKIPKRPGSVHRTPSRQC
Method in brief: (§1)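 Intracellular calcium was tracked by fluorescence (488/540 nm) over 60 sec after compound addition to dye-loaded CHO cells expressing the receptor. Inhibitory activity used a 15 min pre-incubation before carbachol at the subtype EC80.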

M4 muscarinic receptor = biological target: T2, M4 muscarinic receptor (Homo sapiens, UniProt P08173); test: Functional mobilization of intracellular calcium (FLIPR, Fluo-3), M4-CHO cells; assay type: cell-based; conditions: for Emax: 100% efficacy is the maximum response obtained with the Carbachol control, read-out: M4 Efficacy
T2 construct: expressed in transfected cells; host or cells: CHO cells (M4-CHO, under puromycin, zeocin and blasticidin selection)
T2 sequence (P08173 1-479): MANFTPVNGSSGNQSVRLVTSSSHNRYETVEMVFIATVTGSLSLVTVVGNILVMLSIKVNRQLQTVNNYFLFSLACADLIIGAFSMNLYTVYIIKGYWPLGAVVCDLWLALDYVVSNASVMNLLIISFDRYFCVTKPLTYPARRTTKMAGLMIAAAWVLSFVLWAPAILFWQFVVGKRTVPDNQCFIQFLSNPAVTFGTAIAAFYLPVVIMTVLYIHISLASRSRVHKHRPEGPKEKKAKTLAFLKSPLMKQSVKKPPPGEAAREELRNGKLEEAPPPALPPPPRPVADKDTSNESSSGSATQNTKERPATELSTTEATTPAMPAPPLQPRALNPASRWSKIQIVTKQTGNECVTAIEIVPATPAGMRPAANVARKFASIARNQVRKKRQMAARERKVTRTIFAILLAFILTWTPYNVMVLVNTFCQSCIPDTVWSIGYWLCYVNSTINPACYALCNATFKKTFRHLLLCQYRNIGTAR
Method in brief: as §1

[1] = compound nos. 1-454, M1-CHO cells, calcium mobilization
[2] = compound nos. 1-454, M4-CHO cells, calcium mobilization

CN(C)C(=O)N1CC2(CCN(C3CCN(c4cncc(-c5ccccc5O)n4)CC3)CC2)c2ccccc21 [compound 481]
Emax (M1 muscarinic receptor; compound nos. 455-509): < 25% | M1 Activity (M1 muscarinic receptor; compounds 455-509): +++ (activity was measured to be less than or equal to 2.0 μM) | Emax (M4 muscarinic receptor; compound nos. 455-509): < 25% | M4 Activity (M4 muscarinic receptor; compounds 455-509): ++ (activity was measured to be between 2.0 μM and 5.0 μM)

CN(C)C(=O)N1CC2(CCN(C3CCN(c4nncs4)CC3)CC2)c2ccccc21 [compound 495]
Emax (M1 muscarinic receptor; compound nos. 455-509): 25 to 100% | M1 Activity (M1 muscarinic receptor; compounds 455-509): + (activity was measured to be greater than or equal to 5.0 μM) | Emax (M4 muscarinic receptor; compound nos. 455-509): 25 to 100% | M4 Activity (M4 muscarinic receptor; compounds 455-509): + (activity was measured to be greater than or equal to 5.0 μM)

CCOC(=O)N1CCC(N2CCC3(CC2)CNc2ccc(Cl)cc23)CC1 [compound 19]
Emax (M1 muscarinic receptor; compound nos. 1-454): 65 to 85% | M1 Activity (M1 muscarinic receptor; [1]): +++ (activity was measured to be less than or equal to 0.7 μM) | Emax (M4 muscarinic receptor; compound nos. 1-454): 55 to 70% | M4 Activity (M4 muscarinic receptor; [2]): ++ (activity was measured to be between 0.1 μM and 4.0 μM)

CC(=O)NC1CC2(CCN(CC3CC4C=CC3C4)CC2)c2ccccc21 (stereo not shown) [compound 180]
Emax (M1 muscarinic receptor; compound nos. 1-454): 65 to 85% | M1 Activity (M1 muscarinic receptor; [1]): +++ (activity was measured to be less than or equal to 0.7 μM) | Emax (M4 muscarinic receptor; compound nos. 1-454): 55 to 70% | M4 Activity (M4 muscarinic receptor; [2]): +++ (activity was measured to be less than or equal to 0.1 μM)

COCCOC(=O)N1CC2(CCN(C3CC4CCC(C3)N4C(=O)O[C@H]3CCOC3)CC2)c2cc(F)ccc21 (stereo partly shown) [compound 80]
Emax (M1 muscarinic receptor; compound nos. 1-454): < 65% | M1 Activity (M1 muscarinic receptor; [1]): ++ (activity was measured to be between 0.7 μM and 3.0 μM) | Emax (M4 muscarinic receptor; compound nos. 1-454): < 55% | M4 Activity (M4 muscarinic receptor; [2]): ++ (activity was measured to be between 0.1 μM and 4.0 μM)

CCc1nsc(N2CCC(N3CCC4(CCN(C(=O)N(C)C)c5ccccc54)CC3)CC2)n1 [compound 455]
Emax (M1 muscarinic receptor; compound nos. 455-509): > 100% | M1 Activity (M1 muscarinic receptor; compounds 455-509): +++ (activity was measured to be less than or equal to 2.0 μM) | Emax (M4 muscarinic receptor; compound nos. 455-509): 25 to 100% | M4 Activity (M4 muscarinic receptor; compounds 455-509): ++ (activity was measured to be between 2.0 μM and 5.0 μM)

COC(=O)N1CC2(CCN(C3CC4CCC(C3)N4C(=O)OC)CC2)c2cc(F)ccc21 (stereo not shown) [compound 235]
Emax (M1 muscarinic receptor; compound nos. 1-454): 65 to 85% | M1 Activity (M1 muscarinic receptor; [1]): ++ (activity was measured to be between 0.7 μM and 3.0 μM) | Emax (M4 muscarinic receptor; compound nos. 1-454): 55 to 70% | M4 Activity (M4 muscarinic receptor; [2]): + (activity was measured to be greater than or equal to 4.0 μM)

CS(=O)(=O)N1CC2(CCN(C3CC4CCC(C3)N4C(=O)O[C@H]3CCOC3)CC2)c2cc(F)ccc21 (stereo partly shown) [compound 388]
M1 Activity (M1 muscarinic receptor; compound nos. 1-454): +++ (activity was measured to be less than or equal to 0.7 μM) | Emax (M1 muscarinic receptor; compound nos. 1-454): 65 to 85% | M4 Activity (M4 muscarinic receptor; compound nos. 1-454): + (activity was measured to be greater than or equal to 4.0 μM) | Emax (M4 muscarinic receptor; compound nos. 1-454): < 55%

CC(=O)N1CCC2(CCN(C3CCN(c4nc(C)cs4)CC3)CC2)c2ccccc21 [compound 483]
Emax (M1 muscarinic receptor; compound nos. 455-509): 25 to 100% | M1 Activity (M1 muscarinic receptor; compounds 455-509): ++ (activity was measured to be between 2.0 μM and 5.0 μM) | Emax (M4 muscarinic receptor; compound nos. 455-509): 25 to 100% | M4 Activity (M4 muscarinic receptor; compounds 455-509): ++ (activity was measured to be between 2.0 μM and 5.0 μM)

CCOC(=O)N1CCC(N2CCC3(CC2)CN(C(C)=O)c2ccc(-c4ccsc4)cc23)CC1 [compound 165]
Emax (M1 muscarinic receptor; compound nos. 1-454): 65 to 85% | M1 Activity (M1 muscarinic receptor; [1]): + (activity was measured to be greater than or equal to 3.0 μM) | Emax (M4 muscarinic receptor; compound nos. 1-454): > 70% | M4 Activity (M4 muscarinic receptor; [2]): + (activity was measured to be greater than or equal to 4.0 μM)

CC(=O)N1CC2(CCN(C3CCN(c4cncc(C)n4)CC3)CC2)c2ccccc21 [compound 470]
Emax (M1 muscarinic receptor; compound nos. 455-509): > 100% | M1 Activity (M1 muscarinic receptor; compounds 455-509): +++ (activity was measured to be less than or equal to 2.0 μM) | Emax (M4 muscarinic receptor; compound nos. 455-509): 25 to 100% | M4 Activity (M4 muscarinic receptor; compounds 455-509): ++ (activity was measured to be between 2.0 μM and 5.0 μM)

CCOC(=O)N1C2CCC1CC(N1CCC3(CC1)CN(C(=O)c1ccno1)c1ccc(F)cc13)C2 (stereo not shown) [compound 88]
Emax (M1 muscarinic receptor; compound nos. 1-454): 65 to 85% | M1 Activity (M1 muscarinic receptor; [1]): +++ (activity was measured to be less than or equal to 0.7 μM) | Emax (M4 muscarinic receptor; compound nos. 1-454): < 55% | M4 Activity (M4 muscarinic receptor; [2]): ++ (activity was measured to be between 0.1 μM and 4.0 μM)

c1ccc2c(c1)NCC21CCN(C2CC3CCC(C3)C2)CC1 (stereo not shown) [compound 420]
M1 Activity (M1 muscarinic receptor; compound nos. 1-454): ++ (activity was measured to be between 0.7 μM and 3.0 μM) | Emax (M1 muscarinic receptor; compound nos. 1-454): < 65% | M4 Activity (M4 muscarinic receptor; compound nos. 1-454): + (activity was measured to be greater than or equal to 4.0 μM) | Emax (M4 muscarinic receptor; compound nos. 1-454): < 55%

CC(=O)N(C)[C@H]1CC2(CCN(C3CCN(c4nc(C)ns4)CC3)CC2)c2ccccc21 [compound 479]
Emax (M1 muscarinic receptor; compound nos. 455-509): > 100% | M1 Activity (M1 muscarinic receptor; compounds 455-509): +++ (activity was measured to be less than or equal to 2.0 μM) | Emax (M4 muscarinic receptor; compound nos. 455-509): 25 to 100% | M4 Activity (M4 muscarinic receptor; compounds 455-509): ++ (activity was measured to be between 2.0 μM and 5.0 μM)

CC(=O)N1CC2(CCN(C3CCN(c4cnc(C)c(C)n4)CC3)CC2)c2ccccc21 [compound 471]
Emax (M1 muscarinic receptor; compound nos. 455-509): > 100% | M1 Activity (M1 muscarinic receptor; compounds 455-509): ++ (activity was measured to be between 2.0 μM and 5.0 μM) | Emax (M4 muscarinic receptor; compound nos. 455-509): 25 to 100% | M4 Activity (M4 muscarinic receptor; compounds 455-509): ++ (activity was measured to be between 2.0 μM and 5.0 μM)

COCCOC(=O)N1C2CCC1CC(N1CCC3(CC1)CN(C(=O)OC1CCC1)c1ccc(F)cc13)C2 (stereo not shown) [compound 106]
Emax (M1 muscarinic receptor; compound nos. 1-454): 65 to 85% | M1 Activity (M1 muscarinic receptor; [1]): +++ (activity was measured to be less than or equal to 0.7 μM) | Emax (M4 muscarinic receptor; compound nos. 1-454): < 55% | M4 Activity (M4 muscarinic receptor; [2]): ++ (activity was measured to be between 0.1 μM and 4.0 μM)

CCC1CCC(N2CCC3(CC2)CN(C(C)=O)c2ccc(F)cc23)CC1 (stereo not shown) [compound 27]
Emax (M1 muscarinic receptor; compound nos. 1-454): 65 to 85% | M1 Activity (M1 muscarinic receptor; [1]): +++ (activity was measured to be less than or equal to 0.7 μM) | Emax (M4 muscarinic receptor; compound nos. 1-454): 55 to 70% | M4 Activity (M4 muscarinic receptor; [2]): +++ (activity was measured to be less than or equal to 0.1 μM)

CC(=O)N1CC2(CCN(CC3CCN(C(=O)OC(C)C)CC3)CC2)c2cc(C)ccc21 [compound 404]
M1 Activity (M1 muscarinic receptor; compound nos. 1-454): ++ (activity was measured to be between 0.7 μM and 3.0 μM) | Emax (M1 muscarinic receptor; compound nos. 1-454): < 65% | M4 Activity (M4 muscarinic receptor; compound nos. 1-454): + (activity was measured to be greater than or equal to 4.0 μM) | Emax (M4 muscarinic receptor; compound nos. 1-454): < 55%

COC(=O)N1C2CCC1CC(N1CCC3(CC1)CN(S(C)(=O)=O)c1ccc(F)cc13)C2 (stereo not shown) [compound 383]
M1 Activity (M1 muscarinic receptor; compound nos. 1-454): +++ (activity was measured to be less than or equal to 0.7 μM) | Emax (M1 muscarinic receptor; compound nos. 1-454): 65 to 85% | M4 Activity (M4 muscarinic receptor; compound nos. 1-454): ++ (activity was measured to be between 0.1 μM and 4.0 μM) | Emax (M4 muscarinic receptor; compound nos. 1-454): < 55%

O=C(OCC(F)F)N1C2CCC1CC(N1CCC3(CC1)COc1ccc(F)cc13)C2 (stereo not shown) [compound 186]
Emax (M1 muscarinic receptor; compound nos. 1-454): > 85% | M1 Activity (M1 muscarinic receptor; [1]): +++ (activity was measured to be less than or equal to 0.7 μM) | Emax (M4 muscarinic receptor; compound nos. 1-454): 55 to 70% | M4 Activity (M4 muscarinic receptor; [2]): + (activity was measured to be greater than or equal to 4.0 μM)

Clc1ccc2c(c1)C1(CCO2)CCN(C[C@@H]2C[C@H]3C=C[C@H]2C3)CC1 [compound 164]
Emax (M1 muscarinic receptor; compound nos. 1-454): > 85% | M1 Activity (M1 muscarinic receptor; [1]): ++ (activity was measured to be between 0.7 μM and 3.0 μM) | Emax (M4 muscarinic receptor; compound nos. 1-454): > 70% | M4 Activity (M4 muscarinic receptor; [2]): + (activity was measured to be greater than or equal to 4.0 μM)

CCOC(=O)N1C2CCC1CC(N1CCC3(CC1)CN(C(=O)N(C)C)c1ccc(F)cc13)C2 (stereo not shown) [compound 362]
Emax (M1 muscarinic receptor; compound nos. 1-454): 65 to 85% | M1 Activity (M1 muscarinic receptor; [1]): ++ (activity was measured to be between 0.7 μM and 3.0 μM) | Emax (M4 muscarinic receptor; compound nos. 1-454): < 55% | M4 Activity (M4 muscarinic receptor; [2]): + (activity was measured to be greater than or equal to 4.0 μM)
